Test results as given in patent EP3613735A1, “NOVEL SIRT 1 ACTIVATOR AND MEDICINAL USE THEREOF” (Pusan National University Industry - University Cooperation …, priority 2017, dated 2018).

Tests used:
Type in all cases: in vivo, mouse
[1] = test system: db/db mice; assay: Glucose tolerance test and fasting blood glucose in obese animal model; details: for fasting blood glucose: oral 5 mg/kg daily, compared to db/db mouse group; for glucose tolerance (blood glucose concentration): three weeks after oral administration of 5 mg/kg daily, glucose 2 g/kg intraperitoneally after 12 hours fasting
Protocol: The metabolic disease control ability of Compound 32u was analyzed using db/db mice lacking an appetite-regulating hormone leptin receptor as an obese animal model. Compound 32u was orally administered to db/db mice (9 weeks old) at a concentration of 5 mg/kg daily for 4 weeks. Three weeks after oral administration of Compound 32u, a glucose tolerance test was performed. Mice were fasted for 12 hours or more, and glucose (2 g/kg) was injected intraperitoneally, and blood from the tail of the mouse was measured for blood glucose at each time using a glucometer ([…]). The metabolic disease control ability of Compound 70c was analyzed using db/db mice lacking an appetite-regulating hormone leptin receptor as an obese animal model. Compound 70c was orally administered to db/db mice (9 weeks old) at a concentration of 5 mg/kg daily for 4 weeks. Three weeks after oral administration of Compound 70c, a glucose tolerance test was performed. Mice were fasted for 12 hours or more, and glucose (2 g/kg) was injected intraperitoneally, and blood from the tail of the mouse was measured for blood glucose at each time using a glucometer ([…]).

[2] = test system: p-IRE; assay: Liver endoplasmic reticulum stress marker, Western blot; details: db/db mice, oral treatment
Protocol: The cause of non-alcoholic liver disease (NAFLD) is unclear, but recent studies report that endoplasmic reticulum (ER) stress can be involved in fatty liver development and progression to non-alcoholic fatty hepatitis. Thus, in order to analyze the effect of Compound 32u on endoplasmic reticulum stress-related marker (p-IRE) was identified by Western blot. Briefly, about 50 mg of liver was quantified, homogenated and lysed to extract proteins. After quantifying the extracted protein and loading the same amount thereof in the polyacrylamide gel, the protein was separated according to molecular weight through SDS-PAGE (sodium dodecyl sulfate-polyacrylamide gel electrophoresis). Proteins separated according to molecular weight were transferred to a membrane by applying an electric field, and the desired protein was detected using a specific antibody. After reacting the primary antibody that specifically binds to the protein to be detected for at least 12 hours, the secondary antibody that specifically binds to the primary antibody is reacted for 1 hour, and the expression of the protein can be analyzed by treating the developer liquid containing the substrate HRP (horse radish peroxidase) present in the secondary antibody. […] Briefly, about 50 mg of liver was quantified, homogenated and lysed to extract proteins. […]

[3] = test system: db/db mice; assay: Neutral fat in the liver (fatty liver) in obese animal model; details: oral 5 mg/kg daily for 4 weeks
Protocol: Since obesity and insulin resistance are representative diseases directly related to the development of non-alcoholic fatty liver, the improvement effect of Compound 32u on fatty liver was analyzed. Compound 32u was orally administered to db/db mice (9 weeks old) at a concentration of 5 mg/kg daily for 4 weeks. First, the accumulation of fat in the liver, the most representative phenotype, was measured. Briefly, about 50 mg of liver was quantified in cold phosphate buffered saline (PBS) or 0.9% sodium chloride (NaCl) and crushed, followed by treating with mixed solvent of chloroform and methanol (MeOH) in a volume ratio of 2:1 and reacted for 2 hours. […] Thereafter, the amount of neutral fat was measured by absorbance using a neutral fat measurement kit (Stanbio laboratory, TX USA). Since obesity and insulin resistance are representative diseases directly related to the development of non-alcoholic fatty liver, the improvement effect of Compound 70c on fatty liver was analyzed. […] First, the accumulation of fat in the liver, the most representative phenotype, was measured. Briefly, about 50 mg of liver was quantified in cold phosphate buffered saline (PBS) or 0.9% sodium chloride (NaCl) and crushed, followed by treating with mixed solvent of chloroform and methanol (MeOH) in a volume ratio of 2:1 and reacted for 2 hours. […]

[4] = test system: FASN, ACC, SREBP-1a, SREBP-1c and SREBP-2; assay: Liver mRNA expression of fat synthesis genes, quantitative real-time PCR; details: db/db mice, oral 5 mg/kg daily for 4 weeks
Protocol: Since obesity and insulin resistance are representative diseases directly related to the development of non-alcoholic fatty liver, the improvement effect of Compound 32u on fatty liver was analyzed. Compound 32u was orally administered to db/db mice (9 weeks old) at a concentration of 5 mg/kg daily for 4 weeks. First, the accumulation of fat in the liver, the most representative phenotype, was measured. Briefly, about 50 mg of liver was quantified in cold phosphate buffered saline (PBS) or 0.9% sodium chloride (NaCl) and crushed, followed by treating with mixed solvent of chloroform and methanol (MeOH) in a volume ratio of 2:1 and reacted for 2 hours. […] Thereafter, the amount of neutral fat was measured by absorbance using a neutral fat measurement kit (Stanbio laboratory, TX USA). In order to confirm the corresponding mechanism, mRNA expression of genes related to fat synthesis and degradation was analyzed. […] For the synthesized cDNA, a quantative real-time polymerase chain reaction (quantative real-time PCR) was performed to target the desired gene as a primer and quantify it in real time. Since obesity and insulin resistance are representative diseases directly related to the development of non-alcoholic fatty liver, the improvement effect of Compound 70c on fatty liver was analyzed. […] First, the accumulation of fat in the liver, the most representative phenotype, was measured. […]

SMILES | fasting blood glucose [1] | glucose tolerance (blood glucose concentration) [1] | protein expression of endoplasmic reticulum stress-related markers (p-IRE) [2] | neutral fat in the liver [3] | expression of fat synthesis genes (FASN, ACC, SREBP-1a, SREBP-1c and SREBP-2) [4]
Cl.O=C(Nc1ccccc1-c1cc2ccc(CN3CCNCC3)cc2o1)c1ccc2ccccc2c1 [Compound 32u, N-(2-(6-(Piperazin-1-ylmethyl)benzofuran-2-yl)phenyl)-2-naphthamide hydrochloride] | reduced | glucose tolerance was restored | significantly reduced | reduced neutral fat | significantly reduced
O=C(Nc1ccccc1-c1nc2cc(CN3CCN(C4CCCCC4)CC3)ccc2o1)c1ccc2ccccc2c1 [Compound 70c, N-(2-(5-((4-Cyclohexylpiperazin-1-yl)methyl)benzo[d]oxazol-2-yl)phenyl)-2-naphthamide] | reduced | glucose tolerance was restored | significantly reduced | reduced neutral fat | significantly reduced
